Each compound was assayed against human TRPV3 receptors (Homo sapiens (Human), UniProt Q8NET8) (assay: Calcium flux assay (FLIPR TETRA), inhibition of the 2-APB response). Settings: recombinant HEK293 cells stably expressing TRPV3, Calcium-4 dye, 2-APB at its EC80.
Type: cell-based
Experimental: (i) In Vitro Methods-Calcium Flux Assays:
Experiments were conducted using the FLIPR^TETRA®. On the day prior to the experiment, recombinant HEK293 cells that stably express human and mouse TRPV3 were removed from tissue culture flasks and plated in growth medium at 20,000 cells/well into black-walled clear-bottom 384-well Biocoat™ poly-D-lysine assay plates (BD Biosciences, Bedford, Mass.) using a Multidrop® dispenser (ThermoScientific, Waltham, Mass.). […] Cells were incubated for 90-120 minutes in the dark. Compounds were dissolved in DMSO to prepare a 10 mM stock solution. The intensity of the fluorescence was captured and digitally transferred to an interfaced PC. The peak increase in fluorescence over baseline (relative fluorescence units) was calculated and expressed as the percentage of the maximal 2-APB (2-aminoethoxyldiphenyl borate) response (in the absence of compound).

Sequence of human TRPV3 receptors (Q8NET8 whole entry): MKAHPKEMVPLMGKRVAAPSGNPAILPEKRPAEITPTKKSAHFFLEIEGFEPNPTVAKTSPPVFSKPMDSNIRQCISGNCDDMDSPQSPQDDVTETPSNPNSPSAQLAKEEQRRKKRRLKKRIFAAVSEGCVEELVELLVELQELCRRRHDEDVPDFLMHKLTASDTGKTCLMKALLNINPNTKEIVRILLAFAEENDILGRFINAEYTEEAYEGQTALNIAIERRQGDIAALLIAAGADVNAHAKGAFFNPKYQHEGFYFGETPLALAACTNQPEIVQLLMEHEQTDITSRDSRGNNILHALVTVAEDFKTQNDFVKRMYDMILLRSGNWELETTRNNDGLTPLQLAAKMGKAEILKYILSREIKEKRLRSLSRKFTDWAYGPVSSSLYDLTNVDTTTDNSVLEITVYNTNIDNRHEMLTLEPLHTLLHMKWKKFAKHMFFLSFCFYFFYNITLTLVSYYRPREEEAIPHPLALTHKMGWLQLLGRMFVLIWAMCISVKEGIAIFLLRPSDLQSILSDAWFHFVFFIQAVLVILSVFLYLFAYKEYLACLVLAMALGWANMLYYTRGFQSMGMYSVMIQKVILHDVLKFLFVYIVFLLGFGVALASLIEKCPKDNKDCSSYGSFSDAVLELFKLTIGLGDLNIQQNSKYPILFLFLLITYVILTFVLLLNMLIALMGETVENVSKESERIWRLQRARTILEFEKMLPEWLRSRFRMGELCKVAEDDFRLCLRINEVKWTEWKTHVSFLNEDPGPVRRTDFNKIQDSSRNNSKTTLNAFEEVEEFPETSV

Going from `CC[C@H](C)[C@@H](CO)NCc1cccc(-c2ccc(C(F)(F)F)cc2)n1` [Example 2, (2S,3S)-3-methyl-2-[({6-[4-(trifluoromethyl)phenyl]pyridin-2-yl}methyl)amino]pentan-1-ol] to `CC(C)[C@@H](CO)NCc1cccc(-c2ccc(C(F)(F)F)cc2)n1` [Example 3, (2S)-3-methyl-2-[({6-[4-(trifluoromethyl)phenyl]pyridin-2-yl}methyl)amino]butan-1-ol], the IC50 rises from 3.81 µM to 9.38 µM (2.5-fold).

`CC(C)(CO)CNCc1cccc(-c2ccc(C(F)(F)F)cc2)n1` [Example 8, 2,2-dimethyl-3-[({6-[4-(trifluoromethyl)phenyl]pyridin-2-yl}methyl)amino]propan-1-ol] and `OC[C@@H]1[C@@H]2CC[C@@H](C2)[C@@H]1NCc1cccc(-c2ccc(C(F)(F)F)cc2)n1` [Example 9, {(1R,2R,3S,4S)-3-[({6-[4-(trifluoromethyl)phenyl]pyridin-2-yl}methyl)amino]bicyclo[2.2.1]heptan-2-yl}methanol] are within 1.5-fold of each other in IC50: 2.6 µM for the first, 3.65 µM for the second.

First: CC(C)[C@H](CO)NCc1cccc(N2CCCC2)n1 [Example 10, (2R)-3-methyl-2-({[6-(pyrrolidin-1-yl)pyridin-2-yl]methyl}amino)butan-1-ol]
Second: CC(C)[C@H](CO)NCc1cccc(N2CCCCC2)n1 [Example 11, (2R)-3-methyl-2-({[6-(piperidin-1-yl)pyridin-2-yl]methyl}amino)butan-1-ol]
The IC50 of the first is 2-fold higher: 3.79 µM for the first, 1.94 µM for the second.

Going from `CC(C)[C@H](CO)NCc1cccc(OCc2ccccc2)n1` [Example 12, (2R)-2-({[6-(benzyloxy)pyridin-2-yl]methyl}amino)-3-methylbutan-1-ol] to `CC(C)[C@H](CO)NCc1cccc(OC(C)(C)C)n1` [Example 26], the IC50 rises from 0.91 µM to 4.06 µM (4.5-fold). The first is the more potent here.

`CC(C)[C@H](CO)NCc1nc(-c2ccccc2F)ccc1F` [Example 13, (2R)-2-({[3-fluoro-6-(2-fluorophenyl)pyridin-2-yl]methyl}amino)-3-methylbutan-1-ol] and `CC(C)[C@H](CO)NCc1nc(-c2cccc(F)c2)ccc1F` [Example 14, (2R)-2-({[3-fluoro-6-(3-fluorophenyl)pyridin-2-yl]methyl}amino)-3-methylbutan-1-ol] are within 1.5-fold of each other in IC50: 1.12 µM for the first, 0.81 µM for the second.

Going from `CC(C)[C@H](CO)NCc1nc(-c2cccc(Cl)c2)ccc1F` [Example 15, (2R)-2-({[6-(3-chlorophenyl)-3-fluoropyridin-2-yl]methyl}amino)-3-methylbutan-1-ol] to `CC(C)[C@H](CO)NCc1nc(-c2ccc(Cl)cc2)ccc1F` [Example 42, (2R)-2-({[6-(4-chlorophenyl)-3-fluoropyridin-2-yl]methyl}amino)-3-methylbutan-1-ol], the IC50 falls from 1.84 µM to 0.39 µM (4.7-fold). The second is the more potent here.

`CC(C)[C@H](CO)NCc1nc(-c2cccc(C(F)(F)F)c2)ccc1F` [Example 16, (2R)-2-[({3-fluoro-6-[3-(trifluoromethyl)phenyl]pyridin-2-yl}methyl)amino]-3-methylbutan-1-ol] and `CC(C)[C@H](CO)NCc1nc(-c2cccc(OC(F)(F)F)c2)ccc1F` [Example 18, (2R)-2-[({3-fluoro-6-[3-(trifluoromethoxy)phenyl]pyridin-2-yl}methyl)amino]-3-methylbutan-1-ol] are within 1.5-fold of each other in IC50: 1.11 µM for the first, 1.12 µM for the second.

Going from `CC(C)[C@H](CO)NCc1nc(-c2ccc(C(F)(F)F)cc2)ccc1F` [Example 17, (2R)-2-[({3-fluoro-6-[4-(trifluoromethyl)phenyl]pyridin-2-yl}methyl)amino]-3-methylbutan-1-ol] to `CC(C)[C@@H](CO)NCc1nc(-c2ccc(C(F)(F)F)cc2)ccc1F` [Example 30, (2S)-2-[({3-fluoro-6-[4-(trifluoromethyl)phenyl]pyridin-2-yl}methyl)amino]-3-methylbutan-1-ol], the IC50 rises from 0.2 µM to greater than 20 µM.

`CC(C)[C@H](CO)NCc1nc(-c2ccc(OC(F)(F)F)cc2)ccc1F` [Example 19, (2R)-2-[({3-fluoro-6-[4-(trifluoromethoxy)phenyl]pyridin-2-yl}methyl)amino]-3-methylbutan-1-ol] and `CC(C)[C@H](CO)NCc1nc(-c2ccc(F)cc2)ccc1F` [Example 27, (2R)-2-({[3-fluoro-6-(4-fluorophenyl)pyridin-2-yl]methyl}amino)-3-methylbutan-1-ol] are within 1.5-fold of each other in IC50: 0.23 µM for the first, 0.32 µM for the second.

Going from `CC(C)[C@H](CO)NCc1nc(-c2ccc(Cl)c(Cl)c2)ccc1F` [Example 20, (2R)-2-({[6-(3,4-dichlorophenyl)-3-fluoropyridin-2-yl]methyl}amino)-3-methylbutan-1-ol] to `CC(C)[C@H](CO)NCc1nc(-c2ccc(Cl)nc2)ccc1F` [Example 38, (2R)-2-{[(6′-chloro-5-fluoro-2,3′-bipyridin-6-yl)methyl]amino}-3-methylbutan-1-ol], the IC50 rises from 1.39 µM to 2.85 µM (2.1-fold). The first is the more potent here.

First: CC(C)[C@H](CO)NCc1nc(-c2cc(Cl)cc(Cl)c2)ccc1F [Example 21, (2R)-2-({[6-(3,5-dichlorophenyl)-3-fluoropyridin-2-yl]methyl}amino)-3-methylbutan-1-ol]
Second: CC(=O)c1cccc(-c2ccc(F)c(CN[C@@H](CO)C(C)C)n2)c1 [Example 40, 1-{3-[5-fluoro-6-({[(2R)-1-hydroxy-3-methylbutan-2-yl]amino}methyl)pyridin-2-yl]phenyl}ethanone]
The IC50 of the first is 2.4-fold higher: 3.3 µM for the first, 1.4 µM for the second. The second is the more potent here.

Going from `CC(C)[C@H](CO)NCc1nc(-c2cc(C(F)(F)F)cc(C(F)(F)F)c2)ccc1F` [Example 22, (2R)-2-[({6-[3,5-bis(trifluoromethyl)phenyl]-3-fluoropyridin-2-yl}methyl)amino]-3-methylbutan-1-ol] to `CC(C)[C@H](CO)NCc1nc(-c2ccnc(C(F)(F)F)c2)ccc1F` [Example 31, (2R)-2-({[5-fluoro-2′-(trifluoromethyl)-2,4′-bipyridin-6-yl]methyl}amino)-3-methylbutan-1-ol], the IC50 rises from 1.28 µM to 2.19 µM (1.7-fold).

`CC(C)Oc1ccc(F)c(-c2ccc(F)c(CN[C@@H](CO)C(C)C)n2)c1` [Example 23, (2R)-2-[({3-fluoro-6-[2-fluoro-5-(propan-2-yloxy)phenyl]pyridin-2-yl}methyl)amino]-3-methylbutan-1-ol] and `CC(C)Oc1ccc(-c2ccc(F)c(CN[C@@H](CO)C(C)C)n2)cc1F` [Example 25, (2R)-2-[({3-fluoro-6-[3-fluoro-4-(propan-2-yloxy)phenyl]pyridin-2-yl}methyl)amino]-3-methylbutan-1-ol] are within 1.5-fold of each other in IC50: 0.7 µM for the first, 0.65 µM for the second.

Going from `CC(C)Oc1cccc(-c2ccc(F)c(CN[C@@H](CO)C(C)C)n2)c1` [Example 24, (2R)-2-[({3-fluoro-6-[3-(propan-2-yloxy)phenyl]pyridin-2-yl}methyl)amino]-3-methylbutan-1-ol] to `CC(C)[C@H](CO)NCc1nc(-c2cccc(N(C)C)c2)ccc1F` [Example 43, (2R)-2-[({6-[3-(dimethylamino)phenyl]-3-fluoropyridin-2-yl}methyl)amino]-3-methylbutan-1-ol], the IC50 falls from 0.75 µM to 0.46 µM (1.6-fold). The second is the more potent here.

Going from `OC[C@H](NCc1nc(-c2ccc(C(F)(F)F)cc2)ccc1F)C1CC1` [Example 29, (2R)-2-cyclopropyl-2-[({3-fluoro-6-[4-(trifluoromethyl)phenyl]pyridin-2-yl}methyl)amino]ethano 1] to `CC(C)[C@@H](CO)NCc1nc(-c2ccc(C(F)(F)F)nc2)ccc1F` [Example 35, (2S)-2-({[5-fluoro-6′-(trifluoromethyl)-2,3′-bipyridin-6-yl]methyl}amino)-3-methylbutan-1-ol], the IC50 rises from 0.41 µM to greater than 20 µM.

Compared with `CC(C)[C@H](CO)NCc1nccc(-c2ccc(F)cc2)n1` [Example 32, (2R)-2-({[4-(4-fluorophenyl)pyrimidin-2-yl]methyl}amino)-3-methylbutan-1-ol], `CC(C)[C@H](CO)NCc1ccnc(-c2ccc(Cl)cc2)n1` [Example 34, (2R)-2-({[2-(4-chlorophenyl)pyrimidin-4-yl]methyl}amino)-3-methylbutan-1-ol] is 8.6-fold lower in IC50: 12 µM for the first, 1.39 µM for the second.

`CC(C)[C@H](CO)NCc1nc(-c2ccc(F)cn2)ccc1F` [Example 36, (2R)-2-{[(5,5′-difluoro-2,2′-bipyridin-6-yl)methyl]amino}-3-methylbutan-1-ol] and `CC(=O)c1cccc(-c2ccc(F)c(CN[C@@H](CO)C(C)C)n2)c1F` [Example 37, 1-{2-fluoro-3-[5-fluoro-6-({[(2R)-1-hydroxy-3-methylbutan-2-yl]amino}methyl)pyridin-2-yl]phenyl}ethanone] are within 1.5-fold of each other in IC50: 0.95 µM for the first, 1.19 µM for the second.

Compared with `CC(C)[C@H](CO)NCc1nc(-c2cccc(S(=O)(=O)N(C)C)c2)ccc1F` [Example 39, 3-[5-fluoro-6-({[(2R)-1-hydroxy-3-methylbutan-2-yl]amino}methyl)pyridin-2-yl]-N,N-dimethylbenzenesulfonamide], `CCN(CC)C(=O)c1cccc(-c2ccc(F)c(CN[C@@H](CO)C(C)C)n2)c1` [Example 41, N,N-diethyl-3-[5-fluoro-6-({[(2R)-1-hydroxy-3-methylbutan-2-yl]amino}methyl)pyridin-2-yl]benzamide] is 1.7-fold higher in IC50: 1.7 µM for the first, 2.97 µM for the second.

First: CC(C)[C@H](CO)NCc1nc(-c2cccc(N3CCOCC3)c2)ccc1F [Example 44, (2R)-2-[({3-fluoro-6-[3-(morpholin-4-yl)phenyl]pyridin-2-yl}methyl)amino]-3-methylbutan-1-ol]
Second: CC(C)[C@H](CO)NCc1nc(-c2cccc(C(=O)N3CCCCC3)c2)ccc1F [Example 45, {3-[5-fluoro-6-({[(2R)-1-hydroxy-3-methylbutan-2-yl]amino}methyl)pyridin-2-yl]phenyl}(piperidin-1-yl)methanone]
The IC50 of the first is 4.2-fold lower: 0.83 µM for the first, 3.47 µM for the second. The first is the more potent here.

`CC1CCN(C(=O)c2cccc(-c3ccc(F)c(CN[C@@H](CO)C(C)C)n3)c2)CC1` [Example 46, {3-[5-fluoro-6-({[(2R)-1-hydroxy-3-methylbutan-2-yl]amino}methyl)pyridin-2-yl]phenyl}(4-methylpiperidin-1-yl)methanone] was tested, and the IC50 was 2.02 µM.

From patent publication US9012651B2, “TRPV3 modulators” (AbbVie Inc., priority 2011, dated 2015)
